In one assay the test system is DLD1. In words: MTS assay, cytotoxicity on colorectal cancer cell line DLD1. The format is cell-based. The settings on record: Homo sapiens, DLD-1, RON wt, KRAS G13D, 72 hours. On the procedure:
(§1) MTS assay was performed to compare cytotoxicity of the compounds of Example 1, Example 2, Example 3, Example 4, Example 5, Example 6, and positive control 1 on a colorectal cancer cell line, and a cell death rate of the colorectal cancer cell line was analyzed to compare anticancer activity of the compounds.
(§2) The MTS assay was performed by seeding each colorectal cell line in a 96-well plate at 1,000 cells per well, and after 24 hours, performing treatment with the compounds of Examples 1 to 6 and positive control 1 at various concentrations (0.000001 μM to 10 μM) in 100 μL of 10% FBS-RPMI medium (WELGENE Inc.) per well. The cells were incubated for 72 hours. Then, 20 μL of MTS solution (Promega) was added thereto, and the cells were incubated for 2 hours. Then, the absorbance was measured at 490 nm. The IC50 values for the compounds of Examples 1 to 6 and positive control 1 were calculated using GraphPad Prism™ 5 to investigate cytotoxicity.

For another assay, the system named is T84. In words: MTS assay, cytotoxicity on colorectal cancer cell line T84. The format is cell-based. As to conditions: Homo sapiens, RON Δ165, KRAS G13D, 72 hours. On the procedure:
as §1, §2

The next assay has as its system SW620. Briefly: Cell death induction, trypan blue cell counting, SW620. The format is cell-based, human. As to conditions: 1 μM, 48 hours. On the procedure: Based on the results above, to identify the cell death-inducing ability of the compounds of Example 1 and positive control 1, which are representative materials, preparation was performed by seeding respective colorectal cancer cell lines SNU-[…], HCT8, T84, and SW620 onto 60-mm plates at 3×10^5 cells, and then incubation was performed for 24 hours. Thereafter, treatment with each of Example 1 and positive control 1 was performed at 1μM and incubation was performed for 48 hours. In addition, preparation was performed by seeding the cell line SW620 onto a 60-mm plate at 3×10^5 cells, and then incubation was performed for 24 hours. Thereafter, treatment with each of Example 1, positive control 1, positive control 2, and positive control 3 was performed at 1 μM. After 48 hours, the cells and cell suspensions were collected by treatment with trypsin, resuspended in 1× PBS and stained using a trypan blue solution (Sigma, cat# T8154). The stained cells were counted using a hemocytometer. Cell counting was repeated, and the mean and the standard deviation were calculated.

Assay [1] has as its system SW620 (KRAS G12V/mRON Δ155). In words: Cell line SW620-transplanted mouse model. The format is in vivo, BALB/c nude mice. On the procedure:
5-Week-old female BALB/c nude mice were purchased and acclimatized for 1 week. Then, human colorectal cancer patient-derived cell line SW620 (KRAS
G12V/mRON Δ155) at 5×10^6 cells/mouse was injected subcutaneously (100 μL) into the right dorsal side of the mice. The compound of Example 1 was orally administered when the tumor reached a size of about 100 mm^3. The drug was administered once a day for 4 weeks, and tumor size and mouse body weight were measured twice a week. After completion of the drug administration, the experimental animals were euthanized, and then the tumors were extracted and weighed for comparative analysis.
A portion of the extracted tumor tissue was fixed in 10% formalin and processed into a paraffin block. Then, the block was made into sections. Staining of the slide was performed through immunochemical staining. Another portion of the extracted tumor tissue was subjected to lysis, and then Western blotting was used to identify changes in expression of respective proteins.

The mark [2] stands for this setting: immunochemical staining, FIG. 7.

The structures appear in SMILES notation.

Consider `CCOc1ccn(-c2ccc(F)cc2)c(=O)c1C(=O)Nc1ccc(Oc2ccnc3cc(-c4ccc(CN5CCOCC5)cn4)sc23)c(F)c1.Cl` [Example 1, 4-ethoxy-N-[3-fluoro-4-({2-[5-(morpholinomethyl)pyridine-2-yl]thieno[3,2-b]pyridine-7-yl}oxy)phenyl]-1-(4-fluorophenyl)-2-oxo-1,2-dihydropyridine-3-carboxamide hydrochloride], for which the IC50 in the assay on DLD1 was 240 nM. Also, half-maximal inhibition in the assay with T84 (IC50) was put at 350 nM. Moreover, the cell death rate result with SW620 (SW620 (KRAS G12V/mRON Δ155), FIG. 2) is “high cell death rate”. Further, the “cell death induction efficacy” value in the assay on SW620 (SW620 with a RON mutation, FIG. 1) is on record as “cell death induction efficacy was exhibited regardless of mutation type”. For the same molecule, the “Tumor growth inhibition (TGI, %)” value in assay [1] (30 mg/kg, oral, once a day for 4 weeks) stood at 79.2 ± 2.2%. Also, in assay [1] (setting [2]), the “expression of cleaved caspase 3 in tumor tissue” value was “induced expression”, the “expression of cyclin D1 (PD marker) in tumor tissue” value is “decreased expression” and the “expression of pTyr-RON in tumor tissue” value is “decreased expression”. Besides, the “tumor growth inhibitory efficacy” value in assay [1] (oral, 4 weeks, Table 5, FIG. 5, FIG. 6) is given as “high tumor growth inhibitory efficacy”.

Source of the values: patent US20230099204A1, “PHARMACEUTICAL COMPOSITION FOR PREVENTION OR TREATMENT OF CANCER IN WHICH KRAS MUTATION AND ACTIVATED RON ARE PRESENT” (WELLMARKER BIO CO., LTD., priority 2020, published 2023).
